US5525627A, “Esters of acyl carnitines with long-chain aliphatic alcohols and pharmaceutical compositions containing same having antimycotic activity” (Sigma-Tau Industrie Farmaceutiche Riunite S.p.A., priority 1992, dated 1996)
Like-named read-outs stand apart in the source and are kept apart here.

Legend:
yeast-like fungi = assay: MIC / MFC for yeast-like fungi, all strains; type: cell-based, Candida, Cryptococcus, Saccharomyces, Torulopsis; conditions: read-out: Mean MIC values
Protocol: (§1) The following strains were used (the number of strains is in brackets): Candida (13); Criptococcus (2); Saccharormyces (1); Torulopsis (1).
(§2) Yeast Nitrogen Base supplemented with 0.15% asparagine and 1.0% glucose (as carbon source) was the medium utilized in the assays.
(§3) This medium was buffered with 0.165 M 2-(N-morpholino) propane sulfonic acid (MOPS), a non-chelating buffer. […]
(§4) The inoculum was prepared from an overnight broth culture (a 48-hour culture only for Cryptococcus) in Sabouraud broth and appropriately diluted to yield a final suspension containing approximately 5.0×10^6 Colony Forming Units per ml (CFU/ml), when compared to the Mc Farland's standard control (BRAY W. E., Clinical Laboratory Methods, 5th Ed. C. V. MOSBY, St. Louis, Mo, 1957).
(§5) After further diluting (1:50), a […] volume of such fungal suspensions and an equal volume of the substance solutions were distributed into each well of a microtiter plate (96 wells, round bottom). Such a procedure eventually allowed for an "in vitro" antimycotic activity assay utilizing final fungal inocula of approximately 5.0×10^4 CFU/ml.
(§6) The minimal fungicidal concentration was evaluated by spot-transferring onto Petri dishes, containing Sabouraud agar, 0.01-ml volumes of all the samples showing no visible fungal growth.

Fusarium sp. (ISS 1) = assay: MIC for filamentous fungi; type: cell-based; conditions: read-out: Minimal Inhibitory Concentration (MIC)
Text: (§7) The following strains were used (the number of strains is in brackets): Aspergillus (5); Fusarium (1); Mucor (1); Penicillium (1).
(§8) The tested substances were: ST 712, ST 722, ST 982, ST 983, ST 1000, ST 1001, ST 1032, ST 1033, ST 1034, ST 1036, ST 1037, ST 1038, ST 1050, ST 1051, ST 1052, ST 1053. The assay medium was the same as the one used in the previous study. The conidia from 72-hour cultures in Sabouraud agar, collected by washing with Sabouraud medium and Tween 80 (one drop of Tween per 10 ml of medium), were utilized as inoculum (5.0×10^4 CFU/ml).
(§9) The assay was performed using the same procedure as described for yeast-like fungi.
(§10) Also the evaluation of MIC and MFC was as reported previously.

Penicillium sp. (1302) = assay: MIC for filamentous fungi; type: cell-based; conditions: read-out: Minimal Inhibitory Concentration (MIC)
Text: as §7, §8, §9, §10

[1] = tested on: Aspergillus fumigatus (ATCC 28212); assay: MIC for filamentous fungi; type: cell-based; conditions: ATCC28212, read-out: Minimal Inhibitory Concentration (MIC)
Text: as §7, §8, §9, §10

Mucor mucedo (ATCC 7941) = assay: MIC for filamentous fungi; type: cell-based; conditions: ATCC7941, read-out: Minimal Inhibitory Concentration (MIC)
Text: as §7, §8, §9, §10

[2] = tested on: Aspergillus niger (ATCC 16404); assay: MIC for filamentous fungi; type: cell-based; conditions: ATCC16404, read-out: Minimal Inhibitory Concentration (MIC)
Text: as §7, §8, §9, §10

dermatophytic fungi = assay: MIC / MFC for dermatophytic fungi, all strains; type: cell-based, Trichophyton, Microsporum, Epidermophyton; conditions: versus susceptible strains
Protocol: (§11) The following strains were used: Trichophyton menthagrophytes ATCC 9533, Trichophyton rubrum IHEM 4274, Microsporum canis IHEM 3522, Epydermophyton floccosum IHEM 3495. The tested substances were: ST 722, ST 1033, ST 1037, ST 1050, ST 1051, ST 1052,. ST 1053.
(§12) The assay was performed following the same procedure described for the yeasts, by using 7-day fungi cultures grown at 30° C. in Potato Dextrose agar, and harvested with Sabouraud broth and Tween 80 (0.5%).
(§13) After washing with Yeast Nitrogen Base, supplemented with asparagine and glucose (as carbon source), the fungal suspension was fragmented using a tissue grinder until the largest clumps or aggregates were undetectable within the grinder. This fungal suspension was then appropriately diluted in YNB to yield a concentration of 2.0×10^5 infective particles/ml (small mycelium fragments, micro-and macroaleuriospores).
(§14) Volumes of 100 μl both of the fungal suspensions and substance solutions, two-fold serially diluted in assay medium, were distributed into each well of a microtiter plate (96 wells, round bottom), which was incubated at 35° C. for 96 hours.

Candida albicans (562) = assay: MIC for yeast and yeast-like strains; type: cell-based; conditions: 48 hours, 35° C., read-out: Minimal Inhibitory Concentration (MIC)
Protocol: as §1, §2, §3, §4, §5

Candida albicans (Ca 2) = assay: MIC for yeast and yeast-like strains; type: cell-based; conditions: 48 hours, 35° C., read-out: Minimal Inhibitory Concentration (MIC)
Protocol: as §1, §2, §3, §4, §5

[3] = tested on: Candida tropicalis (5705); assay: MIC for yeast and yeast-like strains; type: cell-based; conditions: 48 hours, 35° C., read-out: Minimal Inhibitory Concentration (MIC)
Protocol: as §1, §2, §3, §4, §5

Candida krusei (ISS 1) = assay: MIC for yeast and yeast-like strains; type: cell-based; conditions: Pichia kudriavzevii; 48 hours, 35° C.; read-out: Minimal Inhibitory Concentration (MIC)
Protocol: as §1, §2, §3, §4, §5

[4] = tested on: Saccharomyces cerevisiae (ATCC 7752); assay: MIC for yeast and yeast-like strains; type: cell-based; conditions: ATCC7752, 48 hours, 35° C., read-out: Minimal Inhibitory Concentration (MIC)
Protocol: as §1, §2, §3, §4, §5

[5] = tested on: Trichophyton menthagrophites (ATCC 9533); assay: MIC for dermatophytic fungi; type: cell-based; conditions: ATCC9533, 35° C., 96 hours, read-out: Minimal Inhibitory Concentration (MIC)
Protocol: as §11, §12, §13, §14

[6] = tested on: Trichophyton rubrum (IHEM 4274); assay: MIC for dermatophytic fungi; type: cell-based; conditions: 35° C., 96 hours, read-out: Minimal Inhibitory Concentration (MIC)
Protocol: as §11, §12, §13, §14

[7] = tested on: Epidermophyton floccosum (IHEM 3495); assay: MIC for dermatophytic fungi; type: cell-based; conditions: 35° C., 96 hours, read-out: Minimal Inhibitory Concentration (MIC)
Protocol: as §11, §12, §13, §14

[8] = tested on: Microsporum canis (IHEM 3522); assay: MIC for dermatophytic fungi; type: cell-based; conditions: 35° C., 96 hours, read-out: Minimal Inhibitory Concentration (MIC)
Protocol: as §11, §12, §13, §14

filamentous fungi = assay: MIC / MFC for filamentous fungi, all strains; type: cell-based, Aspergillus, Fusarium, Mucor, Penicillium; conditions: read-out: Mean MIC values
Text: as §7, §8, §9, §10

[9] = tested on: Candida pseudotropicalis (EC 1); assay: MIC for yeast and yeast-like strains; type: cell-based; conditions: Kluyveromyces marxianus; 48 hours, 35° C.; read-out: Minimal Inhibitory Concentration (MIC)
Protocol: as §1, §2
(§15) This medium was buffered with 0.165 M 2-(N-morpholino) propane sulfonic acid (MOPS), a non-chelating buffer.
(§16) Antimicrob. Agents Cheroother. Aug. 34.8:1542-1545).
as §4, §5

[10] = tested on: Candida albicans (ATCC 2091); assay: MIC for yeast and yeast-like strains; type: cell-based; conditions: ATCC2091, 48 hours, 35° C., read-out: Minimal Inhibitory Concentration (MIC)
Protocol: as §1, §2, §15, §16, §4, §5

[11] = tested on: Candida guilliermondii (ISS 1); assay: MIC for yeast and yeast-like strains; type: cell-based; conditions: Meyerozyma guilliermondii; 48 hours, 35° C.; read-out: Minimal Inhibitory Concentration (MIC)
Protocol: as §1, §2, §15, §16, §4, §5

Candida glabrata (ISS 1) = assay: MIC for yeast and yeast-like strains; type: cell-based; conditions: Nakaseomyces glabratus; 48 hours, 35° C.; read-out: Minimal Inhibitory Concentration (MIC)
Protocol: as §1, §2, §15, §16, §4, §5

[12] = tested on: Candida parapsilosis (ISS 1); assay: MIC for yeast and yeast-like strains; type: cell-based; conditions: Lodderomyces parapsilosis; 48 hours, 35° C.; read-out: Minimal Inhibitory Concentration (MIC)
Protocol: as §1, §2, §15, §16, §4, §5

Candida albicans (ISS 1) = assay: MIC for yeast and yeast-like strains; type: cell-based; conditions: 48 hours, 35° C., read-out: Minimal Inhibitory Concentration (MIC)
Protocol: as §1, §2, §15, §16, §4, §5

[13] = tested on: Cryptococcus neoformans (ISS 1); assay: MIC for yeast and yeast-like strains; type: cell-based; conditions: 48 hours, 35° C., read-out: Minimal Inhibitory Concentration (MIC)
Protocol: as §1, §2, §15, §16, §4, §5

[14] = tested on: Candida tropicalis (ISS 1); assay: MIC for yeast and yeast-like strains; type: cell-based; conditions: 48 hours, 35° C., read-out: Minimal Inhibitory Concentration (MIC)
Protocol: as §1, §2, §15, §16, §4, §5

[15] = tested on: Aspergillus fumigatus (C/1); assay: MIC for filamentous fungi; type: cell-based; conditions: read-out: Minimal Inhibitory Concentration (MIC)
Text: as §7, §8, §9, §10

[16] = tested on: Aspergillus fumigatus (1/A); assay: MIC for filamentous fungi; type: cell-based; conditions: read-out: Minimal Inhibitory Concentration (MIC)
Text: as §7, §8, §9, §10

[17] = tested on: Aspergillus fumigatus (2/A); assay: MIC for filamentous fungi; type: cell-based; conditions: read-out: Minimal Inhibitory Concentration (MIC)
Text: as §7, §8, §9, §10

[18] = tested on: Torulopsis candida (D.S.); assay: MIC for yeast and yeast-like strains; type: cell-based; conditions: Suzukiozyma candida; 48 hours, 35° C.; read-out: Minimal Inhibitory Concentration (MIC)
Protocol: as §1, §2, §3, §4, §5

Candida albicans (A 54) = assay: MIC for yeast and yeast-like strains; type: cell-based; conditions: 48 hours, 35° C., read-out: Minimal Inhibitory Concentration (MIC)
Protocol: as §1, §2, §3, §4, §5

[19] = tested on: Cryptococcus neoformans (4711); assay: MIC for yeast and yeast-like strains; type: cell-based; conditions: 48 hours, 35° C., read-out: Minimal Inhibitory Concentration (MIC)
Protocol: as §1, §2, §3, §4, §5

Candida albicans (PG) = assay: MIC and MFC for yeast and yeast-like strains; type: cell-based; conditions: 48 hours, 35° C., read-out: Minimal Inhibitory Concentration (MIC)
Protocol: as §1, §2, §15, §16, §4, §5, §6

Compound | MIC (yeast-like fungi; versus susceptible strains) [µg/mL] | MIC (Fusarium sp. (ISS 1)) [µg/mL] | MIC (Penicillium sp. (1302)) [µg/mL] | MIC [1] [µg/mL] | MIC (Mucor mucedo (ATCC 7941)) [µg/mL] | MIC [2] [µg/mL] | MIC (dermatophytic fungi) [µg/mL] | MIC (Candida albicans (562)) [µg/mL] | MIC (Candida albicans (Ca 2)) [µg/mL] | MIC [3] [µg/mL] | MIC (Candida krusei (ISS 1)) [µg/mL] | MIC [4] [µg/mL] | MIC [5] [µg/mL] | MIC [6] [µg/mL] | MIC [7] [µg/mL] | MIC [8] [µg/mL] | MIC (filamentous fungi; versus susceptible strains) [µg/mL] | MIC [18] [µg/mL] | MIC (Candida albicans (A 54)) [µg/mL] | MIC [19] [µg/mL] | also measured
CCCCCCCCCCCCCOC(=O)C[C@H](C[N+](C)(C)C)OC(=O)CCCCCC [ST 1050] | 4.37 | 6.25 | 3.12 | 6.25 | 12.5 | 6.25 | 20.3 | 6.25 | 3.12 | 6.25 | 3.12 | 3.12 | 12.5 | 6.25 | 50 | 12.5 | 6.85 | – | – | – | –
CCCCCCCCCCCCCOC(=O)C[C@H](C[N+](C)(C)C)OC(=O)C(C)CCCC (stereo partly shown) [ST 1051] | 2.8 | 6.25 | 3.12 | 3.12 | 6.25 | 6.25 | 14.1 | 3.12 | 1.56 | 3.12 | 3.12 | 3.12 | 12.5 | 6.25 | 25 | 12.5 | 6.87 | – | – | – | –
CCCCCCCCCCCCCCCCOC(=O)C[C@H](C[N+](C)(C)C)OC(=O)CC(C)C [ST 1001] | 6.24 | 12.5 | 6.25 | 6.25 | > 100 | 12.5 | – | 3.12 | 3.12 | 6.25 | 6.25 | 6.25 | – | – | – | – | 7.03 | 6.25 | 3.12 | 1.56 | MIC [9]: 12.5 µg/mL; MIC [10]: 6.25 µg/mL; MIC [11]: 6.25 µg/mL; MIC (Candida glabrata (ISS 1)): 6.25 µg/mL; MIC [12]: 6.25 µg/mL; MIC (Candida albicans (ISS 1)): 12.5 µg/mL; MIC [13]: 3.12 µg/mL; MIC [14]: 12.5 µg/mL; MIC [15]: 6.25 µg/mL; MIC [16]: 6.25 µg/mL; MIC [17]: 6.25 µg/mL; MIC (Candida albicans (PG)): 6.25 µg/mL
CCCCCCCCCCCOC(=O)C[C@H](C[N+](C)(C)C)OC(=O)CCCCCCCCCC [ST 982] | – | > 100 | > 100 | > 100 | > 100 | > 100 | – | – | > 100 | > 100 | – | – | – | – | – | – | – | > 100 | > 100 | > 100 | MIC (yeast-like fungi): > 100 µg/mL; MIC (filamentous fungi): > 100 µg/mL
